Literature values in patent US20050196379A1, “Combination therapies with L-FMAU for the treatment of hepatitis B virus infection” (priority 2002, published 2005).

What was measured:
[1] = test system: woodchuck hepatitis B virus (WHV); details: for drop of viral titers in serum: single drug, previous studies, same time frame (two weeks)
[2] = test system: hepatitis B virus; details: in vivo

Compound | drop of viral titers in serum [1] | effect on viral replication and viral clearance ([1]; woodchuck model of HBV) | activity against hepatitis B virus in duck models [2] | average decrease in CCC DNA ([1]; L-FMAU alone, Peek et al.) [fold] | number of infected hepatocytes ([1]; woodchuck model)
β-2-hydroxymethyl-5-(5-fluorocytosin-1-yl)-1,3-oxathiolane [β-L-FTC] | about 56 fold | inhibit viral replication but not induce viral clearance | strong activity |  | 
Cc1cn([C@H]2O[C@@H](CO)[C@H](O)[C@H]2F)c(=O)[nH]c1=O [L-FMAU, 1-(2′-deoxy-2′-fluoro-β-L-arabinofuranosyl)-thymine] | ~1,000 fold |  |  | 10 | decrease rapidly the number of infected hepatocytes
